A short description of data set [1]: Antagonism to the reserpine induced syndrome (ptosis, rectal temperature). More on the design: Ptosis: scale not given here. Type of data set: in vivo.
The test system of data set [2] is reserpinized swimming rat. Kind of data set: Antireserpine effect in a behavior test, swimming rat. Type of data set: in vivo.
Data set [3] is described as follows: Acute toxicity (LD50), single oral and intravenous administration. Type of data set: in vivo, albino male mice. Conditions: mouse, in vivo, single administration, within 48 hours. As for the experimental part: (§1) The acute toxicity (LD50), determined on albino male mice (weight 20-22 g) by a single oral and intravenous administration, is settled within 48 hours.

The nature of data set [4]: Highest tolerated intraperitoneal dose. The settings on record: in vivo, ip.
The test system of data set [5] is albino male mice. Kind of data set: Spontaneous behavior, motor coordination, muscular tension and nociceptive reflexes. Type of data set: in vivo. Conditions: up to 200 mg/kg i.v., observation 5 hours. The text has this:
Among the compounds of the invention, 4H-1,3-benzoxazin-2-one-3-[N-(β-hydroxyethyl)-piperazino-methyl]-acetohydroxamic acid has been particularly studied and compared with 4H-1,3-benzoxazin-2-one-3-acetohydroxamic acid.

Data set [6] relates to albino male mice. Put plainly: Acute toxicity (LD50), single oral and intravenous administration. The settings on record: intravenous route. Type of data set: in vivo. The protocol:
as §1

The mark [7] stands for this setting: reserpine alone, 3.0 mg/kg intraperitoneal.
The mark [8] stands for this setting: Table 4, 50 mg/kg intraperitoneal, reserpine not stated.
Where [9] appears, read: 25.0 mg/kg intraperitoneal, + R (reserpine).
[10] abbreviates: 50.0 mg/kg intraperitoneal, + R (reserpine).
[11] abbreviates: 100.0 mg/kg intraperitoneal, + R (reserpine).
Setting [12] is: 25 mg/kg intraperitoneal, + R (reserpine).
The mark [13] stands for this setting: 50 mg/kg intraperitoneal, + R (reserpine).

Like-named read-outs stand apart in the source and are kept apart here. A value given as a limit tells only on which side of the number the result lay.

In data set [1] (setting [7]), `COC(=O)[C@H]1[C@H]2C[C@@H]3c4[nH]c5cc(OC)ccc5c4CCN3C[C@H]2C[C@@H](OC(=O)c2cc(OC)c(OC)c(OC)c2)[C@@H]1OC` [Reserpine, reference compound] returned a Ptosis of 40 and a Rectal temperature of 32.1 °C. Moreover, the “getting out of a basin full of water” value in data set [2] (in words, reserpinized animals) was “can no longer get out of a basin full of water”. Besides, in data set [2] (reserpine alone, 5 mg/kg intraperitoneal), the “Number of the animals which do not get out” value is listed as 10/10.
The term LD50 denotes the dose at which mortality reaches 50%. Consider `CCN(CC)CCN(CC)CN(O)C(=O)CN1Cc2ccccc2OC1=O` [Example 2, 4H-1,3-benzoxazin-2-one-3-[(N,N,N'triethyl)-ethylenediaminomethyl]-acetohydroxamic acid], for which the “Average time to get out of the basin” value in data set [2] (setting [8]) amounted to 10 s. The “Number of the animals which do not get out” value in data set [2] (setting [8]) is 1/10. Further, the test results in data set [2] (in words) is given as “good test results”. In addition, the LD50 at 48 h in data set [3] (po, per os) was determined as 2550 mg/kg; in data set [3] (intravenous), 328 mg/kg.
Take `O=C(CN1Cc2ccccc2OC1=O)N(O)CN1CCN(CCO)CC1` [4H-1,3-benzoxazin-2-one-3-[N-(β-hydroxyethyl)piperazinomethyl] -acetohydroxamic acid]: the MTD in data set [4] (read-out: tolerated up to dose) was no less than 300 mg/kg. Further, in data set [1] (setting [9]), the Ptosis turned out to be 24 and the Rectal temperature is 33.1 °C. For the same compound, in data set [1] (setting [10]), the Ptosis turned out to be 19 and the Rectal temperature turned out to be 35.6 °C. In data set [1] (setting [11]), the Ptosis is recorded as 2 and the Rectal temperature is 37.6 °C. Further, in data set [1] (in words, Table 1), the “antagonizing the hypothermia induced by reserpine” value is “most active” and the “antagonizing the ptosis induced by reserpine” value is on record as “most active”. Also, in data set [2] (setting [12]), the “Average time to get out of the basin” value was 28 s and the “Number of the animals which do not get out” value is given as 0/10. The “getting out of a basin full of water” value in data set [2] (in words, pretreated plus reserpine, versus control animals) is “manage to get out of the basin within a period of time slightly longer than that of the control animals”. Besides, in the data set on albino male mice [5], the motor apparatus coordination result is recorded as “does not modify”, the muscular tension result is on record as “does not modify”, the nociceptive reflexes result is “does not modify” and the spontaneous behavior result is listed as “does not modify”. This compound also returned an LD50 at 48 h in data set [3] (po, per os) greater than 3000 mg/kg. For the same compound, in data set [3] (intravenous), the LD50 at 48 h was determined as 576 mg/kg. Besides, in the data set with albino male mice [6], the “times less toxic than Imipramine” value is reported as “about 20 times”. The “less toxic than 4H-1,3-benzoxazin-2-one-3-acetohydroxamic acid” value in the data set with albino male mice [6] (in words) is “about half again less toxic”.
Consider `O=C(CN1Cc2ccccc2OC1=O)NO` [4H-1,3-benzoxazin-2-one-3-acetohydroxamic acid], for which, in data set [1] (setting [10]), the Ptosis was determined as 29 and the Rectal temperature stood at 36.0 °C. Also, in data set [1] (setting [11]), the Ptosis is 5 and the Rectal temperature was determined as 38.1 °C. In data set [2] (setting [13]), the “Average time to get out of the basin” value was 25 s and the “Number of the animals which do not get out” value was 0/10. The LD50 at 48 h in data set [3] (po, per os) is roughly 2000 mg/kg. Moreover, the LD50 at 48 h in data set [3] (intravenous) is 350 mg/kg.
Turning to `CN(C)CCCN1c2ccccc2CCc2ccccc21` [Imipramine, reference compound], the MTD in data set [4] (read-out: highest tolerated dose) was 50 mg/kg. Further, in data set [1] (setting [10]), the Ptosis is on record as 29 and the Rectal temperature is 36.0 °C. In data set [2] (setting [12]), the “Average time to get out of the basin” value came out at 40 s and the “Number of the animals which do not get out” value was 7/10.

For the origin of these results see patent US3948890A, “4H-1,3-benzoxazin-2-one-3-acetohydroxamic acid derivatives” (Farmitalia Societa Farmaceutica Italia, priority 1971, dated 1976).
